# Data: patent US5683713A, “Pharmaceutical compositions for topical application” (priority 1993, dated 1997)
# Where two headings read alike, the source gives them in different places.
# Assays:
# [1] = prior art; cited from earlier work
# [2] = Skin irritation / tolerability; details: thioglycolate esters and amides
# [3] = across human skin; cited from earlier work
# [4] = not told; cited from earlier work
# [5] = 6-carboxylfluorescein, rats; pretreatment of the skin with 4% calcium thioglycolate; cited from earlier work
# [6] = In-vitro demonstration of the reaction: conversion of cystine into cysteine, followed by TLC; details: after 6 hours; room temperature, water pH 7.2, under nitrogen
# Description: A test was made to check whether the presence of a thioglycolate ester will cause conversion of Cystine into Cysteine: [drawing 1]
# In a three necked flask (100 ml), under nitrogen were added 10 ml of water (pH 7.2), 200 mg cystine and 200 mg, of iso-octyl thioglycolate and stirred at room temperature for 24 hours. The reaction was followed by TLC using Silica-Gel precoated plates. As an eluant a mixture of BuOH:H2 O:AcOH in a 10:1:5 ratio respectively was used. The plates were developed by spraying a solution of 5% Ninhydrine in ethanol and heating. […] A control experiment was made under the same conditions but without the Thioglycolate ester. After 20 hours at room temperature no cysteine could be detected.
compound,measurement,setting,value
tetralinhydrofurfuryl alcohol,irritation,[1],cause irritation and edema
COC(=O)CS [methyl thioglycolate],irritation,[2],irritants
CCOC(=O)CS [ethyl thioglycolate],irritation,[2],irritants
OCCS [2-Mercaptoethanol],irritation,[1],very strong irritants
"CCCCCCCCCC[S+](C)[O-] (stereo not shown) [decyl methyl, sulfoxide]",penetration of sodium methotrexate,[3],enhances the penetration of sodium methotrexate across human skin
same,toxicological problems,[1],creates toxicological problems
CC(C)=O [acetone],irritation,[1],cause irritation and edema
C[S+](C)[O-] [Dimethyl sulfoxide],concentration needed for significant permeation enhancement,[4],> 70%
O=C(O)CS [calcium thioglycolate],increase of penetration as compared to the control,[5],9 times
"CC(C)CCCCCOC(=O)CS [iso-octyl thioglycolate, Iso-octyl thioglycolate]",conversion of cystine to cysteine (TLC spot),[6],a spot corresponding to cysteine was formed and this spot grew as a function of time
